In patent US9943569B2, “Method for preventing or reducing postoperative pulmonary complications” (OSAKA UNIVERSITY, priority 2015, dated 2018):

How the values were obtained:
[1] = system: patients after esophagectomy; assay: Phase I study of ghrelin administration during the postoperative period after esophagectomy; format: in vivo, human
[2] = system: patients undergoing esophagectomy; assay: SIRS duration after esophagectomy, randomized placebo-controlled phase II study; format: in vivo, human; conditions: ghrelin 0.5 μg/kg/h continuous i.v. infusion for 5 days, n=20
Procedure: Forty patients undergoing esophagectomy were randomly assigned to either the ghrelin group (n=20), which received continuous infusion of ghrelin (0.5 μg/kg/h) for 5 days, or the placebo group (n=20), which received pure saline for 5 days. The primary endpoint was SIRS duration. The secondary endpoints were the incidence of postoperative complications, time of a negative nitrogen balance, changes in body weight and composition, and levels of inflammatory markers, including C-reactive protein (CRP) and interleukin-6 (IL-6).
Forty patients with primary esophageal cancer who underwent esophagectomy were selected to participate in a randomized, placebo-controlled phase II study. The patients were selected based on the following eligibility criteria: (1) thoracic esophageal cancer treated by performing radical esophagectomy with gastric tube reconstruction; (2) age 20 to 75 years; (3) adequate functioning of major organs; (4) no other active malignancies; and (5) provision of written informed consent. […] The study was performed in a double-blind manner, and an independent researcher assessed outcomes.
The primary endpoint of this study was SIRS duration. […] The same amount of ghrelin was administered via intravenous infusion during the 5 days of treatment; the dose was calculated on the basis of body weight on the day before surgery. […]

GH secretion = assay: Mode of ghrelin administration and GH secretion (unpublished data); format: in vivo; conditions: continuous infusion vs periodic injection
[3] = system: patients undergoing esophagectomy; assay: Time required to attain positive nitrogen balance; format: in vivo, human; conditions: ghrelin 0.5 μg/kg/h continuous i.v. for 5 days, n=20
Procedure: (§1) The primary endpoint of this study was SIRS duration. The secondary endpoints were postoperative complications, serum C-reactive protein (CRP) and IL-6 levels, time required to attain a positive nitrogen balance, and changes in body weight and body composition. Postoperative complications were defined as adverse events caused by surgery. Patients received an intravenous continuous infusion of ghrelin (0.5 μg/kg/h) or placebo (pure saline) for 5 days postoperatively. Ghrelin was diluted to a final volume of 48 mL with saline, and the solution was administered at a rate of 2 mL/h by using an infusion pump through a central venous catheter inserted into the right subclavian vein. The same amount of ghrelin was administered via intravenous infusion during the 5 days of treatment; the dose was calculated on the basis of body weight on the day before surgery. Patients in the placebo group received the corresponding infusion containing pure saline using same procedure.

[4] = system: patients undergoing esophagectomy; assay: Adverse events attributable to ghrelin administration in the phase II study; format: in vivo, human; conditions: during the study period; 0.5 μg/kg/h continuous i.v. for 5 days, n=20
Procedure: as §1
In total, 40 enrolled patients were randomized into either the ghrelin group (20 patients) or the placebo group (20 patients). All patients received the planned dose of ghrelin or placebo during the planned period. […]

[5] = system: patients undergoing esophagectomy; assay: Postoperative complications according to the Clavien-Dindo classification; format: in vivo, human
Text: Forty patients with primary esophageal cancer who underwent esophagectomy were selected to participate in a randomized, placebo-controlled phase II study. The patients were selected based on the following eligibility criteria: (1) thoracic esophageal cancer treated by performing radical esophagectomy with gastric tube reconstruction; (2) age 20 to 75 years; (3) adequate functioning of major organs; (4) no other active malignancies; and (5) provision of written informed consent. The following exclusions criteria were used: (1) preoperative diagnosis of esophageal cancer invasion to the aorta or trachea and other organs; (2) patients with multiple cancer; (3) severe respiratory problems, such as emphysema; (4) patients with prior ischemic heart disease; (5) liver cirrhosis or active hepatitis; (6) renal failure requiring dialysis treatment; (7) poorly controlled diabetes mellitus or disease requiring insulin treatment; (8) consecutive use of steroids; and (9) mental disorder. The patients were randomly divided into a ghrelin group and a placebo group at a 1:1 ratio. The approach for thoracic manipulation (i.e., open or thoracoscopic surgery) was used as the only stratification factor. Group allocation was performed before the initiation of surgery. The study was performed in a double-blind manner, and an independent researcher assessed outcomes.
as §1
Blood sampling was performed at the following 7 time points: before surgery; 2 hours after initiation of surgery (during thoracotomy); 4 hours after initiation of surgery (during laparotomy); and on PODs 1, 3, 7, and 10. Complete blood count was performed every day for at least 10 PODs. If the leukocyte count was not within the normal range on POD10, complete blood counts were performed daily until it was within the normal range for 3 consecutive days. SIRS was diagnosed according to the criteria proposed by the American College of Chest Physicians/Society of Critical Care Medicine Consensus Conference^32 and when 2 or more of the following criteria were present: (1) body temperature less than 36° C. or more than 38° C.; (2) heart rate more than 90 beats per minute; (3) tachypnea with more than 20 breaths per minute or an arterial partial pressure of carbon dioxide less than 32 mm Hg; and (4) white blood cell count less than 4000 cells/mm^3, >12,000 cells/mm^3, or an immature (band) form more than 10%. Postoperative complications were evaluated according to the Clavien-Dindo classification.^33 Grade I required no treatment, grade II required medical therapy, grade Ma required interventions but not general anesthesia, grade Mb required general anesthesia, grade IV represented life-threatening states that required intensive care, and grade V represented death.

[6] = ghrelin 0.5 μg/kg/h continuous i.v. for 5 days, n=20

## CCCCCCCC(=O)OC[C@H](NC(=O)[C@H](CO)NC(=O)CN)C(=O)N[C@@H](Cc1ccccc1)C(=O)N[C@@H](CC(C)C)C(=O)N[C@@H](CO)C(=O)N1CCC[C@H]1C(=O)N[C@@H](CCC(=O)O)C(=O)N[C@@H](Cc1cnc[nH]1)C(=O)N[C@@H](CCC(N)=O)C(=O)N[C@@H](CCCNC(=N)N)C(=O)N[C@H](C(=O)N[C@@H](CCC(N)=O)C(=O)N[C@@H](CCC(N)=O)C(=O)N[C@@H](CCCNC(=N)N)C(=O)N[C@@H](CCCCN)C(=O)N[C@@H](CCC(=O)O)C(=O)N[C@@H](CO)C(=O)N[C@@H](CCCCN)C(=O)N[C@@H](CCCCN)C(=O)N1CCC[C@H]1C(=O)N1CCC[C@H]1C(=O)N[C@@H](C)C(=O)N[C@@H](CCCCN)C(=O)N[C@@H](CC(C)C)C(=O)N[C@@H](CCC(N)=O)C(=O)N1CCC[C@H]1C(=O)N[C@@H](CCCNC(=N)N)C(=O)O)C(C)C [ghrelin]
[1]
  systemic inflammation relative to conventional management protocols without ghrelin: tended to be suppressed
[1]; postoperative intensive care management
  effect on fundamental vital signs (blood pressure, heart rate, urine output, pulmonary and liver function): did not affect fundamental vital signs
[2]
  SIRS duration: 3.0 ± 2.9 days
GH secretion
  GH secretion by mode of ghrelin administration: continuous infusion was better than periodic injection
[3]
  time required to attain positive nitrogen balance: 2.6 ± 1.6 days
[4]
  adverse events attributable to ghrelin administration: No adverse events attributable to ghrelin administration were observed
[5]; Grade 0, n=20
  Anastomotic leak, number of patients: 19
  Arrhythmia, number of patients: 19
  Bleeding, number of patients: 20
  Lymphorrhea, number of patients: 20
  Pneumonia, atelectasis, number of patients: 14
  Recurrent nerve paralysis, number of patients: 18
  Wound infection, number of patients: 19
[5]; Grade I, II, n=20
  Anastomotic leak, number of patients: 1
  Arrhythmia, number of patients: 1
  Bleeding, number of patients: 0
  Lymphorrhea, number of patients: 0
  Pneumonia, atelectasis, number of patients: 4
  Recurrent nerve paralysis, number of patients: 2
  Wound infection, number of patients: 1
[5]; Grade III, IV, n=20
  Anastomotic leak, number of patients: 0
  Arrhythmia, number of patients: 0
  Bleeding, number of patients: 0
  Lymphorrhea, number of patients: 0
  Pneumonia, atelectasis, number of patients: 2
  Recurrent nerve paralysis, number of patients: 0
  Wound infection, number of patients: 0
[5]; [6]
  Postoperative complications of higher than grade 1 (Clavien-Dindo), number of patients: 10
  Postoperative complications of higher than grade 1 (Clavien-Dindo), share of patients: 50%
[5]; ghrelin 0.5 μg/kg/h continuous i.v. for 5 days, P=0.016
  incidence of pulmonary complications, including postoperative pneumonia and atelectasis, versus placebo group: significantly lower
